{
  "source": "patent US20220174947A1",
  "about": "“ANTIMICROBIAL MIXTURE CONTAINING 4-(3-ETHOXY-4-HYDROXYPHENYL)BUTAN-2-ONE AND AN ALCOHOL COMPOUND, AND COSMETIC COMPOSITION CONTAINING SAME” (L'OREAL, priority 2018, published 2022)",
  "assay_in_all_cases": "Synergistic antimicrobial activity as MIC, 96-well microplate, optical density at 620 nm",
  "format_in_all_cases": "cell-based",
  "key": {"[1]": {"test_system": "Staphylococcus aureus ATCC 6538", "settings": "for % MIC of A alone: Staphylococcus aureus, growth <= 25%", "source_text": "(§1) FIC Index=(MIC of A with B/MIC of A)+(MIC of B with A/MIC of B [Math. 1]\n(§2) with: • MIC of A with B: minimum concentration of product A in the combination A+B which makes it possible to obtain an inhibitory effect; • MIC of B with A: minimum concentration of product B in the combination A+B which makes it possible to obtain an inhibitory effect; • MIC of A: minimum inhibitory concentration of product A alone; • MIC of B: minimum inhibitory concentration of product B alone. This formula was described for the first time in the article by F. C. Kull, P. C. Eisman, H. D. Sylwestrowka, and R. L. Mayer, Applied Microbiology 9:538-541, 1961.\nThe microbial strain Staphylococcus aureus ATCC 6538 and a double-concentration nutrient broth liquid culture medium were used.\n(§3) A 96-well microplate at an incubation temperature of 32.5° C. is used.\n(§4) The incubation time of the microplate is: • from 24 to 30 h under aerobic conditions for microbial Aspergillus niger ATCC 6275; • from 18 to 24 h under aerobic conditions for Candida albicans ATCC 10231, Pseudomonas aeruginosa ATCC 9027 and Staphylococcus aureus ATCC 6538; • from 24 to 48 h under aerobic conditions for Enterococcus faecalis ATCC 33186.\n(§5) For each compound: A=4-(3-ethoxy-4-hydroxyphenyl) butan-2-one compound B=alcohol compound A 10% (weight/volume) stock solution was prepared by mixing 1 g of compound in 9 ml of aqueous 1% agar solution. Successive dilutions were made with the 1% agar solution.\n(§6) 50 μl of each of the daughter solutions obtained containing compound A or B are added to the microplate wells. 100 μl of Sabouraud liquid nutrient broth inoculated at double concentration with the Aspergillus niger strain and 50 μl of aqueous 1% agar solution are also added thereto.\n(§7) 50 μl of each of the daughter solutions obtained containing compound A and 50 μl of each of the daughter solutions obtained containing compound B are added to the microplate wells. 100 μl of Sabouraud liquid nutrient broth inoculated at double concentration with the strain Aspergillus niger are also added thereto.\n(§8) A positive microbial growth control was also prepared. The positive microbial growth control corresponds to a mixture of 100 μl of aqueous 1% agar solution with 100 μl of Sabouraud liquid nutrient broth inoculated at double concentration with the strain Aspergillus niger in the absence of compounds A and B.\n(§9) An absorbance control was performed in parallel on compounds A and B alone. This control corresponds to 100 μl of double concentration sterile Sabouraud liquid nutrient broth+100 μl of double concentration compound A or B.\n(§10) In the three cases (absorbance control, growth control and test), the final volume present in each of the microplate wells is 200 μl.\nThe test as described above (tests, absorbance control and growth control) was performed again to test the combination A+B on the following strains Enterococcus faecalis, Staphylococcus aureus, Pseudomonas aeruginosa, Candida albicans, where appropriate."}, "[2]": {"test_system": "Pseudomonas aeruginosa ATCC 9027", "settings": "for % MIC of A alone: Pseudomonas aeruginosa, growth <= 25%", "source_text": "with: • MIC of A with B: minimum concentration of product A in the combination A+B which makes it possible to obtain an inhibitory effect; • MIC of B with A: minimum concentration of product B in the combination A+B which makes it possible to obtain an inhibitory effect; • MIC of A: minimum inhibitory concentration of product A alone; • MIC of B: minimum inhibitory concentration of product B alone. This formula was described for the first time in the article by F. C. Kull, […], and R. L. Mayer, Applied Microbiology 9:538-541, 1961. […] When the FIC index value is less than or equal to 1, it is considered that the combination of test compounds has a synergistic effect. The microbial strain Pseudomonas aeruginosa ATCC 9027 and a double-concentration nutrient broth liquid culture medium were used. A 96-well microplate at an incubation temperature of 32.5° C. is used. […] For each compound: […] 50 μl of each of the daughter solutions obtained containing compound A and 50 μl of each of the daughter solutions obtained containing compound B are added to the microplate wells. 100 μl of Sabouraud liquid nutrient broth inoculated at double concentration with the strain Aspergillus niger are also added thereto. A positive microbial growth control was also prepared. […] An absorbance control was performed in parallel on compounds A and B alone. This control corresponds to 100 μl of double concentration sterile Sabouraud liquid nutrient broth+100 μl of double concentration compound A or B. […] The test as described above (tests, absorbance control and growth control) was performed again to test the combination A+B on the following strains Enterococcus faecalis, Staphylococcus aureus, Pseudomonas aeruginosa, Candida albicans, where appropriate."}, "[3]": {"test_system": "Aspergillus niger ATCC 6275", "settings": "for % MIC of A alone: Aspergillus niger, growth <= 25%", "source_text": "as §1, §2\nThe microbial strain Aspergillus niger ATCC 6275, and a double-concentration Sabouraud broth liquid culture medium supplemented with polyoxyethylenated (20 OE) sorbitan monopalmitate (Tween 40 from Croda) and Phytagel© BioReagent were used (i.e. a mixture of 5 g of Phytagel+0.6 g of Tween 40+60 g of Sabouraud broth).\nas §3, §4, §5, §6, §7, §8, §9, §10\nIn the two cases (test and control), the inoculum represents the concentration of the Aspergillus niger strain present in the final volume of the wells (200 μl) and is between 2 and 6×10^5 cfu/ml of Aspergillus niger."}},
  "data": [
    {"smiles": "CCOc1cc(CCC(C)=O)ccc1O", "note": "[A, 4-(3-ethoxy-4-hydroxyphenyl)butan-2-one]", "values": [
      {"measurement": "microbial growth percentage", "setting": "[1]; 0.0625 A, 0 B2 weight %", "value": 52, "unit": "%"},
      {"measurement": "microbial growth percentage", "setting": "[1]; 0.0625 A, 0 B6 weight %", "value": 65, "unit": "%"},
      {"measurement": "microbial growth percentage", "setting": "[1]; 0.125 A, 0 B2 weight %", "value": 49, "unit": "%"},
      {"measurement": "microbial growth percentage", "setting": "[1]; 0.125 A, 0 B6 weight %", "value": 75, "unit": "%"},
      {"measurement": "microbial growth percentage", "setting": "[1]; 0.25 A, 0 B2 weight %", "value": 52, "unit": "%"},
      {"measurement": "microbial growth percentage", "setting": "[1]; 0.25 A, 0 B6 weight %", "value": 79, "unit": "%"},
      {"measurement": "microbial growth percentage", "setting": "[1]; 0.5 A, 0 B2 weight %", "value": 75, "unit": "%"},
      {"measurement": "microbial growth percentage", "setting": "[1]; 0.5 A, 0 B6 weight %", "value": 24, "unit": "%"},
      {"measurement": "microbial growth percentage", "setting": "[1]; 1 A, 0 B2 weight %", "value": 2, "unit": "%"},
      {"measurement": "microbial growth percentage", "setting": "[1]; 1 A, 0 B6 weight %", "value": 5, "unit": "%"},
      {"measurement": "% MIC of A alone", "setting": "[1]; Example 2", "value": 1, "unit": "%"},
      {"measurement": "% MIC of A alone", "setting": "[1]; Example 6", "value": 1, "unit": "%"},
      {"measurement": "microbial growth percentage", "setting": "[2]; 0.0625 A, 0 B4 weight %", "value": 63, "unit": "%"},
      {"measurement": "microbial growth percentage", "setting": "[2]; 0.0625 A, 0 B6 weight %", "value": 80, "unit": "%"},
      {"measurement": "microbial growth percentage", "setting": "[2]; 0.125 A, 0 B4 weight %", "value": 60, "unit": "%"},
      {"measurement": "microbial growth percentage", "setting": "[2]; 0.125 A, 0 B6 weight %", "value": 63, "unit": "%"},
      {"measurement": "microbial growth percentage", "setting": "[2]; 0.25 A, 0 B4 weight %", "value": 64, "unit": "%"},
      {"measurement": "microbial growth percentage", "setting": "[2]; 0.25 A, 0 B6 weight %", "value": 56, "unit": "%"},
      {"measurement": "microbial growth percentage", "setting": "[2]; 0.5 A, 0 B4 weight %", "value": 62, "unit": "%"},
      {"measurement": "microbial growth percentage", "setting": "[2]; 0.5 A, 0 B6 weight %", "value": 61, "unit": "%"},
      {"measurement": "microbial growth percentage", "setting": "[2]; 1 A, 0 B4 weight %", "value": 7, "unit": "%"},
      {"measurement": "microbial growth percentage", "setting": "[2]; 1 A, 0 B6 weight %", "value": "−17", "unit": "%"},
      {"measurement": "% MIC of A alone", "setting": "[2]; Example 4", "value": 1, "unit": "%"},
      {"measurement": "% MIC of A alone", "setting": "[2]; Example 6", "value": 1, "unit": "%"},
      {"measurement": "microbial growth percentage", "setting": "[3]; 0.025 A, 0 B1 weight %", "value": 82, "unit": "%"},
      {"measurement": "microbial growth percentage", "setting": "[3]; 0.025 A, 0 B3 weight %", "value": 45, "unit": "%"},
      {"measurement": "microbial growth percentage", "setting": "[3]; 0.025 A, 0 B5 weight %", "value": 55, "unit": "%"},
      {"measurement": "microbial growth percentage", "setting": "[3]; 0.05 A, 0 B1 weight %", "value": 43, "unit": "%"},
      {"measurement": "microbial growth percentage", "setting": "[3]; 0.05 A, 0 B3 weight %", "value": 35, "unit": "%"},
      {"measurement": "microbial growth percentage", "setting": "[3]; 0.05 A, 0 B5 weight %", "value": 32, "unit": "%"},
      {"measurement": "microbial growth percentage", "setting": "[3]; 0.1 A, 0 B1 weight %", "value": 5, "unit": "%"},
      {"measurement": "microbial growth percentage", "setting": "[3]; 0.1 A, 0 B3 weight %", "value": 14, "unit": "%"},
      {"measurement": "microbial growth percentage", "setting": "[3]; 0.1 A, 0 B5 weight %", "value": 16, "unit": "%"},
      {"measurement": "% MIC of A alone", "setting": "[3]; Example 1", "value": 0.1, "unit": "%"},
      {"measurement": "% MIC of A alone", "setting": "[3]; Example 3", "value": 0.1, "unit": "%"},
      {"measurement": "% MIC of A alone", "setting": "[3]; Example 5", "value": 0.1, "unit": "%"}
    ]}
  ]
}
